Data taken from article PMC11213733, “Computational approaches identify a transcriptomic fingerprint of drug-induced structural cardiotoxicity” (Cell Biology and Toxicology, 2024).
Like-named read-outs stand apart in the source and are kept apart here.

Key:
cardiac microtissues [1] = experiment: Ingenuity Pathway Analysis over-representation of differentially expressed genes (activation Z-score); format: cell-based, human; conditions: 48hr high; Group 2
cardiac microtissues [2] = experiment: Targeted qRT-PCR of ATAD3C, CDH13, IL6, PTX3, SLC7A5, UCHL1 in cardiac microtissues; format: cell-based, human; conditions: Sorafenib 3.74 µM, Sunitinib 3.53 µM, Dasatinib 10.8 µM; for activity at 3.53 µM: Homo sapiens, read-out: % of control
Experimental: The experiment was performed with three technical replicates across 1-2 independent replicates.

cardiac microtissues [3] = experiment: ATP depletion (CellTiter Glo Luminescent Cell Viability Assay) in cardiac microtissues; format: cell-based, human; conditions: the concentration is the IC30 of ATP depletion, or cell death caused
Experimental: Cellular ATP concentrations were also assessed using the CellTiter Glo® Luminescent Cell Viability Assay as per the manufacturer’s instructions (Promega).

[4] = ref FDA label, cited from earlier work
cardiac microtissues [5] = experiment: Transcriptomic profiling (mRNA-seq) and DESeq2 differential gene expression analysis in cardiac microtissues; conditions: absolute log2(Fold-Change) > 1, FDR p ≤ 0.05

CCN(CC)CCNC(=O)c1c(C)[nH]c(/C=C2\C(=O)Nc3ccc(F)cc32)c1C [Sunitinib Malate]
activation Z-score: Actin Cytoskeleton Signaling (cardiac microtissues [1]): -3.317 | activation Z-score: Actin Nucleation by ARP-WASP Complex (cardiac microtissues [1]): -2.646 | activation Z-score: Acute Phase Response Signaling (cardiac microtissues [1]): -2.84 | activation Z-score: Adrenomedullin signaling pathway (cardiac microtissues [1]): -2.53 | activation Z-score: Apelin Cardiac Fibroblast Signaling Pathway (cardiac microtissues [1]): 2.236 | activation Z-score: Apelin Liver Signaling Pathway (cardiac microtissues [1]): -2.449 | activation Z-score: Aryl Hydrocarbon Receptor Signaling (cardiac microtissues [1]): -0.632 | activation Z-score: Breast Cancer Regulation by Stathmin1 (cardiac microtissues [1]): -3 | activation Z-score: CD40 Signaling (cardiac microtissues [1]): -2 | activation Z-score: CLEAR Signaling Pathway (cardiac microtissues [1]): -0.5 | activation Z-score: Cardiac Hypertrophy Signaling (Enhanced) (cardiac microtissues [1]): -3.53 | activation Z-score: Cell Cycle: G2/M DNA Damage Checkpoint Regulation (cardiac microtissues [1]): -3 | activation Z-score: Colorectal Cancer Metastasis Signaling (cardiac microtissues [1]): -3.578 | activation Z-score: Cyclins and Cell Cycle Regulation (cardiac microtissues [1]): 2.333 | activation Z-score: ERK5 Signaling (cardiac microtissues [1]): -2 | activation Z-score: Endothelin-1 Signaling (cardiac microtissues [1]): -2.496 | activation Z-score: G-Protein Coupled Receptor Signaling (cardiac microtissues [1]): -3.212 | activation Z-score: GP6 Signaling Pathway (cardiac microtissues [1]): -4.123 | activation Z-score: Glioblastoma Multiforme Signaling (cardiac microtissues [1]): -2.333 | activation Z-score: HGF Signaling (cardiac microtissues [1]): -2.333 | activation Z-score: HIF1Î± Signaling (cardiac microtissues [1]): -3.464 | activation Z-score: HMGB1 Signaling (cardiac microtissues [1]): -3.357 | activation Z-score: Hepatic Fibrosis Signaling Pathway (cardiac microtissues [1]): -4.768 | activation Z-score: IL-6 Signaling (cardiac microtissues [1]): -2.309 | activation Z-score: IL-8 Signaling (cardiac microtissues [1]): -3.051 | activation Z-score: IL-13 Signaling Pathway (cardiac microtissues [1]): -2.496 | activation Z-score: IL-15 Production (cardiac microtissues [1]): -2.449 | activation Z-score: ILK Signaling (cardiac microtissues [1]): -3.357 | activation Z-score: Immunogenic Cell Death Signaling Pathway (cardiac microtissues [1]): -2.646 | activation Z-score: Inhibition of Angiogenesis by TSP1 (cardiac microtissues [1]): -2 | activation Z-score: Integrin Signaling (cardiac microtissues [1]): -3.606 | activation Z-score: Intrinsic Prothrombin Activation Pathway (cardiac microtissues [1]): -2 | activation Z-score: Kinetochore Metaphase Signaling Pathway (cardiac microtissues [1]): 3.266 | activation Z-score: LXR/RXR Activation (cardiac microtissues [1]): 0.905 | activation Z-score: Leukocyte Extravasation Signaling (cardiac microtissues [1]): -2.065 | activation Z-score: MIF Regulation of Innate Immunity (cardiac microtissues [1]): -2 | activation Z-score: MYC Mediated Apoptosis Signaling (cardiac microtissues [1]): -1.633 | activation Z-score: Macrophage Alternative Activation Signaling Pathway (cardiac microtissues [1]): -2.558 | activation Z-score: Oncostatin M Signaling (cardiac microtissues [1]): -2.236 | activation Z-score: Osteoarthritis Pathway (cardiac microtissues [1]): -2.711 | activation Z-score: Oxytocin Signaling Pathway (cardiac microtissues [1]): -2.324 | activation Z-score: PAK Signaling (cardiac microtissues [1]): -2.236 | activation Z-score: PPAR Signaling (cardiac microtissues [1]): 2.646 | activation Z-score: Pancreatic Adenocarcinoma Signaling (cardiac microtissues [1]): -2.121 | activation Z-score: Paxillin Signaling (cardiac microtissues [1]): -2 | activation Z-score: Production of Nitric Oxide and Reactive Oxygen Species in Macrophages (cardiac microtissues [1]): -3.051 | activation Z-score: Prostanoid Biosynthesis (cardiac microtissues [1]): -2 | activation Z-score: Pulmonary Fibrosis Idiopathic Signaling Pathway (cardiac microtissues [1]): -5.692 | activation Z-score: Pulmonary Healing Signaling Pathway (cardiac microtissues [1]): -2.449 | activation Z-score: Pyridoxal 5'-phosphate Salvage Pathway (cardiac microtissues [1]): 1.342 | activation Z-score: RAC Signaling (cardiac microtissues [1]): -1.89 | activation Z-score: RHOGDI Signaling (cardiac microtissues [1]): 3.606 | activation Z-score: Regulation Of The Epithelial Mesenchymal Transition By Growth Factors Pathway (cardiac microtissues [1]): -4.243 | activation Z-score: Regulation of Cellular Mechanics by Calpain Protease (cardiac microtissues [1]): -2.236 | activation Z-score: Regulation of eIF4 and p70S6K Signaling (cardiac microtissues [1]): -1.342 | activation Z-score: Renin-Angiotensin Signaling (cardiac microtissues [1]): -2.449 | activation Z-score: Ribonucleotide Reductase Signaling Pathway (cardiac microtissues [1]): -1.291 | activation Z-score: Role of JAK family kinases in IL-6-type Cytokine Signaling (cardiac microtissues [1]): -2.668 | activation Z-score: Role of NFAT in Cardiac Hypertrophy (cardiac microtissues [1]): -3.162 | activation Z-score: STAT3 Pathway (cardiac microtissues [1]): -1.414 | activation Z-score: Salvage Pathways of Pyrimidine Ribonucleotides (cardiac microtissues [1]): 1.134 | activation Z-score: Senescence Pathway (cardiac microtissues [1]): -3.3 | activation Z-score: Signaling by Rho Family GTPases (cardiac microtissues [1]): -3.638 | activation Z-score: TREM1 Signaling (cardiac microtissues [1]): -2.646 | activation Z-score: Type II Diabetes Mellitus Signaling (cardiac microtissues [1]): -1.342 | activation Z-score: White Adipose Tissue Browning Pathway (cardiac microtissues [1]): -2.714 | activation Z-score: Wound Healing Signaling Pathway (cardiac microtissues [1]): -4.964 | activation Z-score: iNOS Signaling (cardiac microtissues [1]): -2.236 | activity at 3.53 µM (cardiac microtissues [2]; gene ATAD3C, Run 1): 85.2% | activity at 3.53 µM (cardiac microtissues [2]; gene CDH13, Run 1): 81.7% | activity at 3.53 µM (cardiac microtissues [2]; gene CDH13, Run 2): 32.5% | activity at 3.53 µM (cardiac microtissues [2]; gene IL6, Run 1): 18.3% | activity at 3.53 µM (cardiac microtissues [2]; gene IL6, Run 2): 3.18% | activity at 3.53 µM (cardiac microtissues [2]; gene PTX3, Run 1): 46.8% | activity at 3.53 µM (cardiac microtissues [2]; gene PTX3, Run 2): 18.6% | activity at 3.53 µM (cardiac microtissues [2]; gene SLC7A5, Run 1): 87.2% | activity at 3.53 µM (cardiac microtissues [2]; gene SLC7A5, Run 2): 7.07% | activity at 3.53 µM (cardiac microtissues [2]; gene UCHL1, Run 1): 59.4% | activity at 3.53 µM (cardiac microtissues [2]; gene UCHL1, Run 2): 18.6% | 2^-ΔΔCt of Individual reps, Treated 1 (cardiac microtissues [2]; gene ATAD3C, Run 1): 0.6771 | 2^-ΔΔCt of Individual reps, Treated 2 (cardiac microtissues [2]; gene ATAD3C, Run 1): 0.9498 | 2^-ΔΔCt of Individual reps, Treated 3 (cardiac microtissues [2]; gene ATAD3C, Run 1): 0.9298 | Average 2^-ΔΔCt, Treated (cardiac microtissues [2]; gene ATAD3C, Run 1): 0.8522 | 2^-ΔΔCt of Individual reps, Treated 1 (cardiac microtissues [2]; gene CDH13, Run 1): 0.8001 | 2^-ΔΔCt of Individual reps, Treated 2 (cardiac microtissues [2]; gene CDH13, Run 1): 0.8203 | 2^-ΔΔCt of Individual reps, Treated 3 (cardiac microtissues [2]; gene CDH13, Run 1): 0.8552 | Average 2^-ΔΔCt, Treated (cardiac microtissues [2]; gene CDH13, Run 1): 0.8252 | 2^-ΔΔCt of Individual reps, Treated 1 (cardiac microtissues [2]; gene CDH13, Run 2): 0.3506 | 2^-ΔΔCt of Individual reps, Treated 2 (cardiac microtissues [2]; gene CDH13, Run 2): 0.356 | 2^-ΔΔCt of Individual reps, Treated 3 (cardiac microtissues [2]; gene CDH13, Run 2): 0.3542 | Average 2^-ΔΔCt, Treated (cardiac microtissues [2]; gene CDH13, Run 2): 0.3536 | 2^-ΔΔCt of Individual reps, Treated 1 (cardiac microtissues [2]; gene IL6, Run 1): 0.1962 | 2^-ΔΔCt of Individual reps, Treated 2 (cardiac microtissues [2]; gene IL6, Run 1): 0.1722 | 2^-ΔΔCt of Individual reps, Treated 3 (cardiac microtissues [2]; gene IL6, Run 1): 0.1837 | Average 2^-ΔΔCt, Treated (cardiac microtissues [2]; gene IL6, Run 1): 0.184 | 2^-ΔΔCt of Individual reps, Treated 1 (cardiac microtissues [2]; gene IL6, Run 2): 0.1296 | 2^-ΔΔCt of Individual reps, Treated 2 (cardiac microtissues [2]; gene IL6, Run 2): 0.008 | 2^-ΔΔCt of Individual reps, Treated 3 (cardiac microtissues [2]; gene IL6, Run 2): 0.00254 | Average 2^-ΔΔCt, Treated (cardiac microtissues [2]; gene IL6, Run 2): 0.04671 | 2^-ΔΔCt of Individual reps, Treated 1 (cardiac microtissues [2]; gene PTX3, Run 1): 0.5127 | 2^-ΔΔCt of Individual reps, Treated 2 (cardiac microtissues [2]; gene PTX3, Run 1): 0.4851 | 2^-ΔΔCt of Individual reps, Treated 3 (cardiac microtissues [2]; gene PTX3, Run 1): 0.4283 | Average 2^-ΔΔCt, Treated (cardiac microtissues [2]; gene PTX3, Run 1): 0.4754 | 2^-ΔΔCt of Individual reps, Treated 1 (cardiac microtissues [2]; gene PTX3, Run 2): 0.364 | 2^-ΔΔCt of Individual reps, Treated 2 (cardiac microtissues [2]; gene PTX3, Run 2): 0.159 | 2^-ΔΔCt of Individual reps, Treated 3 (cardiac microtissues [2]; gene PTX3, Run 2): 0.09578 | Average 2^-ΔΔCt, Treated (cardiac microtissues [2]; gene PTX3, Run 2): 0.2063 | 2^-ΔΔCt of Individual reps, Treated 1 (cardiac microtissues [2]; gene SLC7A5, Run 1): 0.9373 | 2^-ΔΔCt of Individual reps, Treated 2 (cardiac microtissues [2]; gene SLC7A5, Run 1): 0.8504 | 2^-ΔΔCt of Individual reps, Treated 3 (cardiac microtissues [2]; gene SLC7A5, Run 1): 0.8586 | Average 2^-ΔΔCt, Treated (cardiac microtissues [2]; gene SLC7A5, Run 1): 0.8821 | 2^-ΔΔCt of Individual reps, Treated 1 (cardiac microtissues [2]; gene SLC7A5, Run 2): 0.1881 | 2^-ΔΔCt of Individual reps, Treated 2 (cardiac microtissues [2]; gene SLC7A5, Run 2): 0.06312 | 2^-ΔΔCt of Individual reps, Treated 3 (cardiac microtissues [2]; gene SLC7A5, Run 2): 0.06588 | Average 2^-ΔΔCt, Treated (cardiac microtissues [2]; gene SLC7A5, Run 2): 0.1057 | 2^-ΔΔCt of Individual reps, Treated 1 (cardiac microtissues [2]; gene UCHL1, Run 1): 0.6206 | 2^-ΔΔCt of Individual reps, Treated 2 (cardiac microtissues [2]; gene UCHL1, Run 1): 0.6021 | 2^-ΔΔCt of Individual reps, Treated 3 (cardiac microtissues [2]; gene UCHL1, Run 1): 0.5702 | Average 2^-ΔΔCt, Treated (cardiac microtissues [2]; gene UCHL1, Run 1): 0.5976 | 2^-ΔΔCt of Individual reps, Treated 1 (cardiac microtissues [2]; gene UCHL1, Run 2): 0.3214 | 2^-ΔΔCt of Individual reps, Treated 2 (cardiac microtissues [2]; gene UCHL1, Run 2): 0.1175 | 2^-ΔΔCt of Individual reps, Treated 3 (cardiac microtissues [2]; gene UCHL1, Run 2): 0.1882 | Average 2^-ΔΔCt, Treated (cardiac microtissues [2]; gene UCHL1, Run 2): 0.209 | Transcriptomic high concentration (µM) = IC30 of ATP depletion (cardiac microtissues [3]): 3.53 µM | Structural cardiotoxin? ([4]; FDA label references heart failure or a decrease in left ventricular ejection fraction): Y | Functional cardiotoxin? ([4]; compound annotation): Y | number of significant differentially expressed genes, 6hr high (cardiac microtissues [5]; 6 hr, high concentration): 10 | number of significant differentially expressed genes, 6hr low (cardiac microtissues [5]; 6 hr, low concentration): 0 | number of significant differentially expressed genes, 48hr high (cardiac microtissues [5]; 48 hr, high concentration): 861 | number of significant differentially expressed genes, 48hr low (cardiac microtissues [5]; 48 hr, low concentration): 399 | number of significant differentially expressed genes, 72hr high (cardiac microtissues [5]; 72 hr, high concentration): 152 | number of significant differentially expressed genes, 72hr low (cardiac microtissues [5]; 72 hr, low concentration): 71
